# Measurements as given in patent US11628198B2, “Methods for prevention and treatment of acute renal injury” (Cornell University, priority 2008, dated 2023).
# Several values for one entry are separate records, joined by “and”; a condition that tells them apart may be missing. Identical values can stand only once. Marks after values point to notes of the source that are not given here.
# How the values were obtained:
# Type in all cases: in vivo, rat
# [1] = tested on: ARI caused by ischemia-reperfusion (I/R); test: I/R model of ARI: BUN and serum creatinine; conditions: 45 min ischemia and 24 h reperfusion; 3 mg/kg 30 min before ischemia and before reperfusion
# Procedure: (§1) Sprague Dawley rats (250˜300 g) were assigned to four groups: (1) sham surgery group without I/R; (2) I/R+saline vehicle treatment; (3) I/R+SS-20 treatment; (4) I/R+SS-31 treatment. Each experimental group consisted of 8 rats. SS-20 and SS-31 (3 mg/kg, dissolved in saline) were administered to rats 30 min before ischemia and immediately before onset of reperfusion. The control rats were given saline alone on the same schedule.
# (§2) Rats were anesthetized with a mixture of ketamine (90 mg/kg, i.p.) and xylazine (4 mg/kg, i.p.). The left renal vascular pedicle was occluded temporarily using a micro-clamp for 30 or 45 min. At the end of the ischemic period, reperfusion was established by removing of the clamp. At that time, the contralateral right kidney was removed. After 24 h reperfusion, animals were sacrificed and blood samples were obtained by cardiac puncture. Renal function was determined by blood urea nitrogen (BUN) and serum creatinine (BioAssay Systems DIUR-500 and DICT-500).
# BUN and serum creatinine were assayed using kits from BioAssay Systems (DIUR-500 and DICT-500). […] The # indicates p<0.05 from the IR=saline group.
# [2] = tested on: ATP content in renal tissue; test: I/R model: ATP content assay of kidney tissue
# Procedure: as §1, §2
# ATP Content Assay: The kidney tissue was immediately put into 10 ml 5% trichloroacetic acid with 10 mM DTT, 2 mM EDTA and cut into small pieces. The tissue was homogenized on ice, incubated for another 10 min, centrifuged for 10 min at 2000×g, and neutralized with 10N KOH to pH 7.6. After centrifugation for 10 min at 2000×g, aliquots of the resulting supernatant were stored at −80° C. ATP was measured by bioluminescence (ATP bioluminescent kit, Sigma, MO, USA).
# [3] = tested on: ARI caused by ureteral obstruction (UUO); test: 14-day UUO model: renal histology (trichrome, interstitial volume); conditions: obstructed kidney
# Procedure: (§3) Sprague-Dawley rats underwent unilateral ureteral ligation (UUO) with 4-0 silk suture through a midline abdominal incision under sterile conditions. Ureteral obstruction was carried out by ligating the left ureter at the end of lower ureter, just above the ureterovesical junction.
# (§4) SS-31 (1 mg/kg or 3 mg/kg; n=8) was administered intraperitoneally, one day prior to UUO and continuing for 14 days. A separate group of animals was given saline, as a vehicle control (n=16).
# Renal Histology: Trichrome sections of paraffin embedded specimens were examined by a board-certified pathologist (SVS, renal pathology specialist), and fibrosis scored on a scale of 0-+++.
# [4] = tested on: ARI caused by ureteral obstruction (UUO); test: 14-day UUO model: immunohistochemistry and TUNEL
# Procedure: as §3, §4
# Immunohistochemical Analysis: Immunohistochemical staining for macrophages was carried out using a monoclonal antibody to ED-1 (Serotec) as previously described. Macrophages were counted in 10 high-power fields (×400) by two different independent investigators in a blinded fashion. The TUNEL assay was performed as described in Example 1. The presence of fibroblasts was examined using immunohistochemistry, as described in Example 1. The antibody utilized was DAKO #S100-A4 (1:100 dilution). The S100-A4 antigen is also known as FSP-1 (fibroblast specific protein). Antigen was retrieved by incubating cells with Proteinase K for 20 min in an oven. The remaining immunoperoxidase protocol was carried out according to routine procedures. Staining for S100-A4 was found in spindle-shaped interstitial cells, and also in cells which were round, and were identified as inflammatory cells by the pathologist. Only spindle-shaped cells were included in the counts. […] 8-OH dG staining was carried using Proteinase K for antigen retrieval. The antibody used was from the Japan Institute Control of Aging, and was used at a dilution of 1:200-1:500.
# [5] = tested on: contrast induced nephropathy in diabetic animal model; test: CIN in diabetic (HFD/STZ) rats with iohexol, Experiment 2
# Procedure: In this experiment, 30 SD rats were fed with high fat diet for 6 weeks, followed by the injection with low dose streptozotocin (30 mg/kg). After 9 more weeks, the rats were used in the contrast induced nephropathy study. The animals were divided into 2 groups with the doses, dosing schedules and study protocol as follows. On day 0, the weight of the animals was determined and glucose and serum samples were collected. On day 1, Scr was assayed and spot urine collection performed. On days 2 and 3, 3 mg/kg SS-31 (Group 1) or a vehicle (Group 2) was administered s.c. 30 min prior to the dye injection (6 mL/kg i.v. tail vein). SS-31 (Group 1) or PBS (Group 2) administration was repeated at 2 h, 1 day, 2, days, 3 days, 4 days, and 5 day post-dye administration. On day 8, serum and urine samples were collected and the rats were euthaniszed to harvest kidneys and vital organs.
# Renal function: Renal function was assessed by determining serum and urinary creatinine using Jiancheng Cr kit (Nanjing, P.R.C) at baseline, 24 h, 3 day and 6 days following contrast dye (Iohexol) administration. The creatinine clearance was calculated based on the Scr, Ucr and Urinary volume. Samples were analyzed by students t-test and differences were considered significant at p<0.05.
# [6] = tested on: contrast induced nephropathy in diabetic animal model; test: CIN in diabetic (HFD/STZ) rats with iohexol, Experiment 3; conditions: individual rats of Group C
# Procedure: In this experiment, 20 SD rats were fed with high fat diet for 6 weeks, followed by the injection with low dose streptozotocin (35 mg/kg). After 15 more weeks, the rats were subjected to contrast induced nephropathy study. In addition, we included a normal control group was included in which 9 rats from the same batch on regular chow diet were subjected to the same protocol.
# […] The creatinine clearance was calculated based on the Scr, Ucr and urinary volume. Samples were analyzed by students t-test and differences were considered significant at p<0.05.
substance,measurement,setting,value
D-Arg-2′6′Dmt-Lys-Phe-NH2 [SS-31],BUN,[1],113.8 ± 11.4# mg/dl
same,serum creatinine,[1],1.05 ± 0.16# mg/dl
same,ATP content in renal tissue,"[2]; 1 h reperfusion following 45 min ischemia, vs vehicle",significantly higher
same,ATP content in renal tissue,[2]; end of 15 min ischemia,not altered
same,"trichrome staining (fibrosis), cortex",[3],0-trace
same,"trichrome staining (fibrosis), medulla",[3],tr− 1+
same,medullary interstitial volume,[3]; 1 mg/kg i.p. daily,54.9±2.3%
same,medullary interstitial volume,[3]; higher dose,also effective
same,fibroblast infiltration (FSP-1) in the OK,[4]; 1 mg/kg,43.4 % of control
same,tubular apoptosis (TUNEL),[4]; 1 mg/kg,5.1±0.5 cells per HPF
same,"tubular proliferation (PCNA), increase",[4]; 1 mg/kg,2 fold
same,fibroblast infiltration (FSP-1) in the OK,[4]; 3 mg/kg,28.0 % of the untreated OK
same,renal tubular apoptosis (TUNEL),[4]; 3 mg/kg,3.0±0.3 apoptotic cells/HPF
same,"tubular proliferation (PCNA), increase",[4]; 3 mg/kg,3.5 fold
same,macrophage infiltration into the OK (ED-1),[4]; 1 and 3 mg/kg,significantly decreased macrophage infiltration
same,8-OH dG positive cells/HPF,[4]; obstructed kidney,significantly reduced
same,GFR,[5]; Baseline,159.2±25.1 μl/min/100 g
same,Scr,[5]; Baseline,214.6 ± 15.4 µmol/L
same,U protein,[5]; Baseline,5.4 ± 1.1 mg/4 h
same,U vol,[5]; Baseline,18.1 ± 4.4 mL
same,Ucr,[5]; Baseline,4182.5 ± 699.8 µmol/L
same,GFR,[5]; T1 (24 h post dye),159.9±9 μl/min/100 g
same,Scr,[5]; T1 (24 h post dye),168.6 ± 21.9 µmol/L
same,U protein,[5]; T1 (24 h post dye),3.6 ± 0.8 mg/4 h
same,U vol,[5]; T1 (24 h post dye),15.2 ± 4.3 mL
same,Ucr,[5]; T1 (24 h post dye),4488.9 ± 861.6 µmol/L
same,GFR,[5]; T2 (3 day post dye),100.9 ± 16.7 μl/min/100 g
same,Scr,[5]; T2 (3 day post dye),236.2 ± 26.6 µmol/L
same,U protein,[5]; T2 (3 day post dye),4.3 ± 0.9 mg/4 h
same,U vol,[5]; T2 (3 day post dye),12.8 ± 3.6 mL
same,Ucr,[5]; T2 (3 day post dye),4744.8 ± 1350.6 µmol/L
same,GFR,[5]; T3 (6 days post dye),121.5 ± 9.1 μl/min/100 g
same,Scr,[5]; T3 (6 days post dye),175.3 ± 25.9 µmol/L
same,U protein,[5]; T3 (6 days post dye),2.4 ± 0.4 mg/4 h
same,U vol,[5]; T3 (6 days post dye),9.6 ± 2.3 mL
same,Ucr,[5]; T3 (6 days post dye),4030.7 ± 620 µmol/L
same,Scr T22h,[6]; T22h post dye,25 μM (2×) and 26 μM and 24 μM and 27 μM and 28 μM and 30 μM and 35 μM and 19 μM
same,Scr % change T22,[6]; T22h vs Tb,0% and 4% and −11% and 9% and −7% and 17% and 20% and 40% and −34%
same,Scr Tb,[6]; baseline,25 μM (4×) and 27 μM and 23 μM and 29 μM (2×) and 24 μM
